Measurements published in EP2875811A1, “Use of dobesilate for treating ocular haemorrhages” (priority 2013, dated 2015).

Experiments:
vitreous haemorrhage = assay type: in vivo, human
Method: A 68 old-year type 2 diabetic man presented with intense vision loss in their right eye. […] Intraocular pressure was 50mmHg that was reduced to 14mmHg after a paracentesis procedure. After approval of the Institutional Ethics Committee, the patient signed an informed consent form, which included a comprehensive description of dobesilate and the proposed procedure. Patient received an intravitreal solution of dobesilate (150 µl) under sterile conditions, following the International Guidelines for intravitreal injections (Aiello LP et al. Retina. 2004; 24 (5 Suppl):S3-S19) in their right eye. Dobesilate was administered as a 12.5% solution of diethylammonium 2.5-dihydroxybenzenesulfonate (etamsylate, dicynone® Sanofi-Aventis. Paris. France).
• Figure 1 Sequence of fundus photographs (A-D) and spectral-domain optical coherence tomography (SD-OCT) scans (D-F) of a patient with a moderate-sized submacular haemorrhage at baseline (A,D), and one (B,E) and two months (C,F) after a single intravitreal injection of dobesilate. Asterisk in D indicates retinal pigment epithelium (RPE) detachment. • Figure 2 Efficacy of intravitreal dobesilate injection to clear vitreous haemorrhage in a diabetic patient. A and C photographs were taken at presentation, and B and D after 3 days of treatment. […] Note in B the abnormal appearance of the pupil due to luxation of the lens. […]

submacular haemorrhage = assay type: in vivo, human
Method: A person with a history of wet age-related macular degeneration (AMD) in both eyes developed a sudden vision decrease in the right eye. The best corrected visual acuity (BCVA) on presentation was of 0.05. […] Haemorrhage seems also result in the RPE detachment at some points (Fig 1D, asterisk). Intravitreal dobesilate was administered in the right eye, using a standard protocol. After approval of our Institution Ethical Committee, the patient signed an informed consent form, which included a comprehensive description of dobesilate and the proposed procedure. Patient received an intravitreal solution of dobesilate (150µl) under sterile conditions in their right eye, following the International Guidelines for intravitreal injections (Aiello LP et al. Retina. 2004; 24 (5 Suppl):S3-S19). Dobesilate was administered as a 12.5% solution of diethylammonium 2.5-dihydroxybenzenesulfonate (etamsylate; dicynone® Sanofi-Aventis. Paris. France).
• Figure 1 Sequence of fundus photographs (A-D) and spectral-domain optical coherence tomography (SD-OCT) scans (D-F) of a patient with a moderate-sized submacular haemorrhage at baseline (A,D), and one (B,E) and two months (C,F) after a single intravitreal injection of dobesilate. Asterisk in D indicates retinal pigment epithelium (RPE) detachment. • Figure 2 Efficacy of intravitreal dobesilate injection to clear vitreous haemorrhage in a diabetic patient. A and C photographs were taken at presentation, and B and D after 3 days of treatment. […] Note in B the abnormal appearance of the pupil due to luxation of the lens. Arrow indicates paracentesis site.

[1] = person, right eye, intravitreal 150µl of 12.5% solution, along two months follow-up

O=S(=O)(O)c1cc(O)ccc1O [dobesilate, diethylammonium 2.5-dihydroxybenzenesulfonate]
Intraocular pressure (vitreous haemorrhage; after treatment, pressure had been reduced from 50mmHg to 14mmHg by paracentesis before injection): maintained at normal level | ocular side effects (vitreous haemorrhage; human, in vivo): No ocular side effects were observed | ocular side effects (submacular haemorrhage; human, in vivo): No ocular side effects were observed | SD-OCT scans: retinal architecture / RPE detachment (submacular haemorrhage; [1]): progressive normalization of the retinal architecture with disappearance of RPE detachment | haemorrhage signs (fundus) (submacular haemorrhage; [1]): gradually disappeared | final BCVA (best corrected visual acuity) (submacular haemorrhage; person, right eye, intravitreal 150µl of 12.5% solution, two months follow-up, BCVA on presentation 0.05): 0.50
